One data set concerns EO771 cells. The class given is cell-based, Murine. Conditions: for competition with rotenone on OCR: PPV given before rotenone; for inhibition of oxygen consumption (OCR), effective concentration (words): real time Seahorse XF dose response. The protocol:
Error bars represent standard deviation.
FIGS. 2A-2D are OCR measurements and cell viability assessments. FIG. 2A-2B are representative of OCR measurement in competition assay between PPV and complex I inhibitors piericidin A (FIG. 2A) and capsaicin (FIG. 2B). Values represent the means+−SD. […] Bar charts represent mean of viable cells in duplicates+−standard deviation.
(§1) Seahorse analysis of the OCR. Oxygen consumption rate (OCR) was measured using Seahorse XF96 Flux Analyzer (Agilent Technologies). The cells were seeded to attach overnight, wells were washed with pre-warmed XF Calibrant (Agilent Technologies) and the replaced with unbuffered Assay Medium (pH 7.4, 5 mM glucose, 1 mM L-glutamine). The plates were incubated at 37° C. in a CO2-free incubator for 2 hours prior to assay. For succinate rescue assay, cells were permeabilized using XF Plasma Membrane Permeabilizer Reagent (XF PMP, Agilent Technologies) according to the manufacturer's instructions. The OCR rate was measured in 1× Mitochondrial Assay Solution (MAS) (70 mM sucrose, 220 mM mannitol, 10 mM KH2PO4, 5 mM MgCl2, 2 mM Hepes, 0.6% (w/v) fatty acid-free BSA and 1 mM EGTA; pH 7.4). After baseline oxygenation was established, 1 μM rotenone or 10 μM PPV was injected at time A, followed by 5 mM succinate at time B. Error bars represent standard deviation. For the washout experiment, EO771 cells were seeded overnight, then treated with 10 μM PPV or 1 μM rotenone 3 hours prior to OCR measurement. Media was replaced 1 and 2 hours before measurement and OCR reported.

For data set [1], the system named is oxygen consumption (mitochondrial function). The data set is described as follows: Seahorse XF analysis of oxygen consumption in vitro, cell line not stated. The class given is cell-based. The procedure:
as §1

Data set [2] relates to NDUFV1 KO NDI1 flank xenografts. The data set is described as follows: Tumor growth delay of NDUFV1 KO NDI1 flank xenografts with XRT. It counts as in vivo, mice. Conditions: 2 mg/kg PPV 35 minutes prior to 8 Gy. The procedure:
FIGS. 5A-5E show papaverine radiosensitizes through complex I inhibition. […] Values represent mean viable cells+−SD. […] Values are mean+−SD. […] P value was calculated with two-tailed two-sample t test. […] Curves represent mean tumor volumes+−SEM.
FIGS. 6A-6E show uncropped western blot membrane used for FIG. 5A showing NDUFV1 and PDH E1α levels (FIG. 6A) before probing for NDI1 (FIG. 6B). […] Values represent mean OCR from at least 5 replicates+−SD. […] Curves represent averaged colony counts+−SD. […] Values are mean tumor volumes+−SEM.
Tumor Growth kinetics. 2×10^6 EO771 or 5×10^6 A549 cells were injected s.c. into the flanks of 6-week old female immunocompetent C57/B6 (EO771) or immunocompromised nu/nu (A549) mice. Caliper measurements of opposing diameter were used to calculate the tumor volumes. Upon reaching […], the tumors were visualized by cone beam CT and treatment plans calculated using SARRP software. […] Tumor volumes were measured until the post treatment volume increased 3-fold. Error bars represent standard deviation.

A further data set deals with cell lines of Table 1. Briefly: Cell lines tested for sensitivity to PPV (mitochondrial function). Conditions: 29 cell lines: breast, colon, leukemia, lung, normal, osteosarcoma, pancreas, pharynx, tongue. It counts as cell-based, Human, Murine, Canine. The protocol: as §1
PPV was tested in vitro to determine if it could decrease mitochondrial function in all cells tested in minutes at low micromolar concentrations (Table 1, FIG. 1A).

Another data set relates to A549 cells. The data set is described as follows: In vitro radiation survival (colony formation) of A549 cells. The class given is cell-based, Human. The protocol: FIGS. 4A-4G show tumor growth before and after radiosensitization with PPV. FIG. 4A-4B show in vitro radiation survival assessment of A549 cell line treated with […] PPV in normoxia (FIG. 4A) and anoxia (FIG. 4B). Normoxic cells were irradiated in triplicates on a cell culture dish, anoxic cells were irradiated in high density suspension after sealing with mineral oil 45 minutes before radiation. Values represent averaged colony counts+−standard deviation. FIG. 4C show quantification of tumor growth delay in orthotopic EO771 tumors gown in C57B16 mice receiving either 5 Gy XRT (magenta) or 2 mg/kg PPV 35 minutes prior to 5 Gy XRT (blue) (n=3-4). Values are mean tumor volumes+−SEM. […] Values are mean tumor volumes+−SEM. FIG. 4E-4F show tumor growth delay. When tumors reached 4-fold volume increase, groups receiving no treatment or PPV only (FIG. 4E); and XRT only or PPV followed by XRT (FIG. 4F), tumor weights were compared. Values are mean tumor weights+−SEM (n=8). P values were calculated with two-tailed two-sample t test. FIG. 4G are related to FIG. 4E-4F tumor growth delay.
A549 cells in suspension were treated with 5 μM PPV for one hour prior to radiation and plating in fresh media for colony formation post radiation. (N=2 experiments performed in triplicate). […]

For data set [3] the following is noted: cited from earlier work.
For the next data set, the system named is C57BL/6 mice. Briefly: Acute toxicity, IV to isoflurane-anesthetized mice. The protocol:
Bar graphs represent the mean area covered by pimonidazole-positive cells evaluated from 20 images per animal+−standard error of the mean. P value was calculated against control with two-tailed two-sample t test. […] Mean volumes+−SEM. P values were calculated against XRT with two-tailed two-sample t test. *P<0.05; **P<0.01; ***P<0.001; ****P<0.0001; n.s., not significant.
Reducing any possible adverse effects of PPV given to cancer patients if it is being used as a radiosensitizer are needed. PDE10A inhibition can cause systemic vascular effects which can result in a drop in blood pressure and increase in heart rate as vessels become more compliant. This acute drop in blood pressure produces a physiological compensation where the individual's heart rate and breathing rate rise to maintain tissue perfusion. If the effect on systemic vasculature was too great, this could lead to cardiovascular collapse and rapid death. Acute toxicity of PPV, SMV23 and SMV32 given IV to mice under anesthesia with 2% isoflurane was determined. Isoflurane delivered in medical air was used so that the effects on tumor oxygenation was reduced, although isoflurane can depress respiration and is typically given in 100% oxygen.

Entries after “also recorded” stand apart in the source; their conditions may differ. Where two headings read alike, the source gives them in different places. Where only a bound is given, the exact number is not on record here.

Turning to `COc1ccc(Cc2nccc3cc(OC)c(OC)cc23)cc1OC` [PPV, papaverine], in the data set on EO771 cells, the “efficiency at rotenone binding pocket relative to rotenone” value is “approximately 100 × lower efficiency”; the “competition with rotenone on OCR” value is “block the activity of the classical complex 1 inhibitor rotenone”; the “inhibition of oxygen consumption (OCR), effective concentration (words)” value is “effective at low micromolar concentrations”. In the data set with EO771 cells (listed as papaverine), the “competition with rotenone on OCR” value is recorded as “blocked rotenone's inhibitory activity”. Further, the “interaction with complex 1 inhibitors piericidin A or capsaicin” value with EO771 cells (competition assay) is given as “no interaction”. Besides, the “inhibition of oxygen consumption (OCR), effective concentration (words)” value in the data set on EO771 cells (listed as Papaverine) is “rapidly inhibited oxygen consumption at low micromolar concentrations”. Besides, the “inhibition of oxygen consumption / mitochondrial function in vitro” value in data set [1] is on record as “effective at inhibiting oxygen consumption”. In data set [2], the “radiation growth delay with drug” value is listed as “resistant to PPV dependent increase in radiation growth delay”. The “sensitivity to PPV” value in the data set with cell lines of Table 1 is given as “List of cell lines positively tested for sensitivity to PPV”. Further, in the data set on A549 cells (5 μM papaverine for one hour prior to radiation), the “colony survival after radiation” value is recorded as “did not have any effect on colony survival; also recorded: not an inherent radiosensitizer”. In addition, in the data set with A549 cells (10 μM PPV, normoxia and anoxia), the “surviving fraction of irradiated cells” value is listed as “did not change the surviving fraction”. Besides, in data set [3] (Ritschel et al.), the expected half-life was 1.5 to 2 h. Further, in data set [3] (in vivo), the “half-life, cleared from the serum” value is 1.5 to 2 h. Moreover, the “time to death after delivery” value with C57BL/6 mice (6 mg/kg IV bolus) is no more than 5 min. In addition, the Survivors in the data set on C57BL/6 mice (6 mg/kg IV, 2% isoflurane in medical air) is listed as 0/3. For the same compound, the “acute toxicity” value in the data set on C57BL/6 mice (rapid 6 mg/kg IV bolus, isoflurane-anesthetized mice) is “toxic, with significant gasping of mice, convulsions and death”.
